Earlier results on one compound are cited in article PMC13601336 (Frontiers in Pharmacology, 2026).

For the series, the target named is T1, UGT1A1 (Homo sapiens, UniProt P22309).
T1 construct: purchased BD Gentest (Woburn, MA, USA)
T1 sequence (P22309 26-533): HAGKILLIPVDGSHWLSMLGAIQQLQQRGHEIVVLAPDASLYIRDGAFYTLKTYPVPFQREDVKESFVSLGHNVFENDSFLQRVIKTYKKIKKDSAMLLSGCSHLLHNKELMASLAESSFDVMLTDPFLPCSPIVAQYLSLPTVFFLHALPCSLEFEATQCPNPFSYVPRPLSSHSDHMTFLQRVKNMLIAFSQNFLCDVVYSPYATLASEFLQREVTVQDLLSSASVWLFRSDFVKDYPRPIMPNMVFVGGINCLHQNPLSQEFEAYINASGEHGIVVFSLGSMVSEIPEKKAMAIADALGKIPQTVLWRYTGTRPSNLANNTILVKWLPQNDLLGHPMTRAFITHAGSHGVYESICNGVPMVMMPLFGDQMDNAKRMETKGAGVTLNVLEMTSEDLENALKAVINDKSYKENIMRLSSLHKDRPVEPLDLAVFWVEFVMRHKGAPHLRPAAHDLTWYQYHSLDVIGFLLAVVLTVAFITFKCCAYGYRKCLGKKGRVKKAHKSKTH
As to conditions: ref Zhang et al., 2021.

Turning to `O=c1c(O)c(-c2ccc(O)c(O)c2)oc2cc(O)cc(O)c12` [Quercetin, quercetin], the Ki was 2180 nM.
